target: T1, DPP-4 (human recombinant) (Homo sapiens, UniProt P27487); experiment: In vitro assay for DPP-4 inhibitory activity (fluorescence, Gly-Pro-AMC); assay type: biochemical; conditions: flavonoid 200 μM; mean ± SD, three independent experiments; read-out: % Inhibition at 200μM;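 also: fluorescence of released AMC (excitation 360 nm, emission 460 nm) followed kinetically over 30 min at 37 °C in Tris-HCl pH 8.0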
T1 construct: purchased Sigma Aldrich D3446
T1 sequence (P27487 whole entry): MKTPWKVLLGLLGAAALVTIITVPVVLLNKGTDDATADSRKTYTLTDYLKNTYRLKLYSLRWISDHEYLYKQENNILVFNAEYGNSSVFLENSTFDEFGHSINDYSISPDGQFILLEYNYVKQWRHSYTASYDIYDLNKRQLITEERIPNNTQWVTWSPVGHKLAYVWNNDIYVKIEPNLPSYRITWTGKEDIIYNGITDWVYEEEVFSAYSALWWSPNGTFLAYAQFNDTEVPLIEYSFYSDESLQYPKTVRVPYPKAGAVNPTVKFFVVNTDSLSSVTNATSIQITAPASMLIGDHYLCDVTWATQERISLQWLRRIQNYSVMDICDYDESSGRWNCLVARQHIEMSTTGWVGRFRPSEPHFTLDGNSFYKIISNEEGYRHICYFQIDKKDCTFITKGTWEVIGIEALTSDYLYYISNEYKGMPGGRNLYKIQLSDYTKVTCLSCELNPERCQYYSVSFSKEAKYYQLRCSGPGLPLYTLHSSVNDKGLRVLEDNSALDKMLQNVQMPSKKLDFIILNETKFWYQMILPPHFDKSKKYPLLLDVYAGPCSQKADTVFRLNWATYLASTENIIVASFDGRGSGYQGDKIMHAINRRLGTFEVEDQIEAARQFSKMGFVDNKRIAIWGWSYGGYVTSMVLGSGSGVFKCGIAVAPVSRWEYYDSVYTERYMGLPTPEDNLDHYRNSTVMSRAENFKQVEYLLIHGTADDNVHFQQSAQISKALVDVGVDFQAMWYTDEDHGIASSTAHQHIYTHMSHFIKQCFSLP

Row | inhibition at 200 µM | SMILES
1 | < 10% | Oc1cc(O)c2c(c1)OC(c1ccc(O)c(O)c1)C(O)C2 (stereo not drawn) [D1, Catechin]
2 | < 10% | Oc1cc(O)c2c(c1)O[C@H](c1ccc(O)c(O)c1)[C@H](O)C2 [D2, Epicatechin]
3 | < 10% | O=C(O[C@@H]1Cc2c(O)cc(O)cc2O[C@@H]1c1cc(O)c(O)c(O)c1)c1cc(O)c(O)c(O)c1 [D3, Epigallocatechin gallate]
4 | 27.1 ± 0.42% | O=c1c(O[C@@H]2O[C@@H](CO)[C@H](O)[C@H]2O)c(-c2ccc(O)c(O)c2)oc2cc(O)cc(O)c12 [E1, Avicularin]
5 | 38.26 ± 0.36% | O=c1c(O)c(-c2ccccc2)oc2cc(O)cc(O)c12 [E2, Galangin]
6 | 36.9 ± 1.13% | O=c1c(O[C@@H]2O[C@H](CO)[C@@H](O)[C@H](O)[C@H]2O)c(-c2ccc(O)c(O)c2)oc2cc(O)cc(O)c12 [E5, Isoquercitrin]
7 | 38.6 ± 1.41% | COc1cc(-c2oc3cc(O)cc(O)c3c(=O)c2OC2OC(CO)C(O)C(O)C2O)ccc1O (stereo not drawn) [E7, Isorhamnetin 3-O-glucoside]
8 | 40.6 ± 0.42% | COc1cc(-c2oc3cc(O)cc(O)c3c(=O)c2OC2OC(CO)C(O)C(O)C2OC2OC(C)C(O)C(O)C2O)ccc1O (stereo not drawn) [E8, Isorhamnetin 3-O-neohesperidin]
9 | 15.7 ± 0.58% | COc1ccc(-c2oc3cc(O)cc(O)c3c(=O)c2O)cc1 [E9, Kaempferide]
10 | 19.3 ± 0.47% | C[C@@H]1O[C@@H](Oc2cc(O)c3c(=O)c(O[C@@H]4O[C@@H](C)[C@H](O)[C@@H](O)[C@H]4O)c(-c4ccc(O)cc4)oc3c2)[C@H](O)[C@H](O)[C@H]1O [E10, Kaempferitrin]
11 | 32.23 ± 0.19% | O=c1c(O)c(-c2ccc(O)cc2)oc2cc(O)cc(O)c12 [E11, Kaempferol]
12 | 46.3 ± 1.57% | O=c1c(OC2OC(CO)C(O)C(O)C2O)c(-c2ccc(O)cc2)oc2cc(O)cc(O)c12 (stereo not drawn) [E13, Kaempferol 3-O-galactoside]
13 | 36.83 ± 0.01% | CC1OC(OCC2OC(Oc3c(-c4ccc(O)cc4)oc4cc(O)cc(O)c4c3=O)C(O)C(O)C2O)C(O)C(O)C1O (stereo not drawn) [E14, Kaempferol 3-O-rutinoside]
14 | 43.2 ± 1.48% | O=c1c(OC2OC(CO)C(O)C(O)C2OC2OC(CO)C(O)C(O)C2O)c(-c2ccc(O)cc2)oc2cc(O)cc(O)c12 (stereo not drawn) [E15, Kaempferol 3-O-sophoroside]
15 | 37.2 ± 0.64% | O=c1c(O)c(-c2ccc(OC3OC(CO)C(O)C(O)C3O)cc2)oc2cc(O)cc(O)c12 (stereo not drawn) [E16, Kaempferol 4'-O-glucoside]
16 | 42.8 ± 0.91% | O=c1c(O)c(-c2ccc(O)cc2O)oc2cc(O)cc(O)c12 [E18, Morin]
17 | 45.6 ± 0.78% | COc1c(-c2ccc(O)c(O)c2)oc2cc(O)cc(O)c2c1=O [E22, 3-O-Methylquercetin]
18 | 33.9 ± 1.07% | O=c1c(OC2OC(CO)C(O)C(O)C2O)c(-c2ccc(O)c(O)c2)oc2cc(OC3OC(COC4OC(CO)C(O)C(O)C4O)C(O)C(O)C3O)cc(O)c12 (stereo not drawn) [E24, Quercetin 3-O-glu-7-O-gentiobioside]
19 | 48.96 ± 0.12% | CC1OC(Oc2cc(O)c3c(=O)c(O)c(-c4ccc(O)c(O)c4)oc3c2)C(O)C(O)C1O (stereo not drawn) [E25, Quercetin 7-O-rhamnoside]
20 | 22.2 ± 0.63% | COc1cc(O)c2c(=O)c(O)c(-c3ccc(O)c(O)c3)oc2c1 [E27, Rhamnetin]

The remaining lines, values behind:

Row | SMILES | inhibition at 200 µM
21 | O=c1cc(-c2ccccc2)oc2cc(O)cc(O)c12 [A3, Chrysin] | 26.1 ± 3.07%
22 | COc1ccc(-c2cc(=O)c3c(O)cc(O)cc3o2)cc1O [A4, Diosmetin] | 22.2 ± 1.22%
23 | COc1ccc(-c2cc(=O)c3c(O)cc(O[C@@H]4O[C@H](CO[C@@H]5O[C@@H](C)[C@H](O)[C@@H](O)[C@H]5O)[C@@H](O)[C@H](O)[C@H]4O)cc3o2)cc1O [A5, Diosmin] | 16.4 ± 1.73%
24 | O=c1cc(-c2ccc(O)c(O)c2)oc2cc(O)c([C@@H]3O[C@H](CO)[C@@H](O)[C@H](O)[C@H]3O)c(O)c12 [A6, Isoorientin] | 42.63 ± 0.33%
25 | O=c1cc(-c2ccc(O)cc2)oc2cc(O)c([C@@H]3O[C@H](CO)[C@@H](O)[C@H](O)[C@H]3O)c(O)c12 [A7, Isovitexin] | 42.4 ± 1.23%
26 | O=c1cc(-c2ccc(O)c(O)c2)oc2cc(O)cc(O)c12 [A8, Luteolin] | 47.5 ± 0.89%
27 | O=C(O)C1OC(Oc2cc(O)c3c(=O)cc(-c4ccc(O)c(O)c4)oc3c2)C(O)C(O)C1O (stereo not drawn) [A9, Luteolin 7-O-glucuronide] | 35.65 ± 0.11%
28 | O=c1cc(-c2ccc(O)c(O)c2)oc2cc(O[C@@H]3O[C@H](CO)[C@@H](O)[C@H](O)[C@H]3O)cc(O)c12 [A10, Luteoloside] | 45.6 ± 0.62%
29 | COc1ccc(-c2cc(=O)c3c(OC)c(OC)c(OC)c(OC)c3o2)cc1 [A13, Tangeretin] | 14.2 ± 1.06%
30 | O=c1cc(-c2ccc(OC3OC(CO)C(O)C(O)C3O)cc2)oc2c(C3OC(CO)C(O)C(O)C3O)c(O)cc(O)c12 (stereo not drawn) [A16, Vitexin 4'-O-glucoside] | 45.9 ± 1.48%
31 | COc1ccc(-c2coc3cc(O)cc(O)c3c2=O)cc1 [B1, Biochanin A] | 14.3 ± 1.48%
32 | COc1ccc(-c2coc3cc(O)ccc3c2=O)cc1O [B2, Calycosin] | 43 ± 2.41%
33 | O=c1c(-c2ccc(O)cc2)coc2cc(O)ccc12 [B3, Daidzein] | 19.2 ± 3.44%
34 | COc1ccc(-c2coc3cc(O)ccc3c2=O)cc1 [B4, Formononetin] | 17.6 ± 0.19%
35 | O=c1c(-c2ccc(O)cc2)coc2cc(O)cc(O)c12 [B5, Genistein] | 15.3 ± 0.21%
36 | COc1cc(O)c2c(=O)cc(-c3ccc(O)cc3)oc2c1 [B6, Genkwanin] | 20.8 ± 1.92%
37 | O=C1c2c(O)cc(O)cc2O[C@H](c2ccc(O)cc2O)[C@H]1O [C1, Dihydromorin] | 30.9 ± 1.22%
38 | O=C1c2c(O)cc(O)cc2O[C@H](c2cc(O)c(O)c(O)c2)[C@H]1O [C2, Dihydromyricetin] | 20.6 ± 0.36%
39 | COc1ccc([C@@H]2CC(=O)c3c(O)cc(O)cc3O2)cc1O [C3, Hesperetin] | < 10%
40 | O=C1C[C@@H](c2ccc(O)cc2)Oc2cc(O)ccc21 [C5, Liquiritigenin] | 17.1 ± 0.94%
41 | C[C@@H]1O[C@@H](Oc2c(-c3ccc(O)c(O)c3)oc3cc(O)cc(O)c3c2=O)[C@H](O)[C@H](O)[C@H]1O [E26, Quercitrin] | 47.65 ± 0.36%

same assay, conditions: read-out: % Inhibition at 200μM

Row | SMILES | inhibition at 200 µM
42 | C[C@@H]1O[C@@H](OC[C@H]2O[C@@H](Oc3cc(O)c4c(c3)O[C@H](c3ccc(O)cc3)CC4=O)[C@H](O)[C@@H](O)[C@@H]2O)[C@H](O)[C@H](O)[C@H]1O [A11, Narirutin] | 13.97 ± 0.13%
43 | O=c1cc(-c2ccc(O)c(O)c2)oc2c([C@@H]3O[C@H](CO)[C@@H](O)[C@H](O)[C@H]3O)c(O)cc(O)c12 [A12, Orientin] | 38.6 ± 2.1%
44 | O=c1cc(-c2ccc(O)cc2)oc2c([C@@H]3O[C@H](CO)[C@@H](O)[C@H](O)[C@H]3O)c(O)cc(O)c12 [A14, Vitexin] | 27 ± 1.35%
45 | COc1ccc(C2CC(=O)c3c(O)cc(OC4OC(COC5OC(C)C(O)C(O)C5O)C(O)C(O)C4O)cc3O2)cc1O (stereo not drawn) [C4, Hesperidin] | < 10%
46 | O=c1c(O)c(-c2ccc(O)cc2)oc2c(O)c(O)cc(O)c12 [E3, Herbacetin] | 25.7 ± 1.82%
47 | COc1cc(-c2oc3cc(O)cc(O)c3c(=O)c2O)ccc1O [E6, Isorhamnetin] | 29.4 ± 1.52%
48 | O=c1c(O)c(-c2ccc(O)cc2)oc2cc(OC3OC(CO)C(O)C(O)C3O)cc(O)c12 (stereo not drawn) [E17, Kaempferol 7-O-glucoside] | 48.8 ± 1.07%
